# Source: patent US10221426B2, “Constitutively active PYR/PYL receptor proteins for improving plant stress tolerance” (The Regents of the University of California, priority 2009, dated 2019)
# Experiments:
# [1] = target: T1, PYR1 and PP2Cs (GST-HAB1, GST-ABI1, GST-ABI2) (Arabidopsis thaliana, UniProt O49686); assay: Pull-down assay of 6×His-PYR1 with GST-PP2Cs; assay type: binding; conditions: purified recombinant proteins; 10 μM (+)-ABA
# T1 construct: made in house; host or cells: E. coli BL21[DE3]pLysS
# T1 sequence (O49686 1-191): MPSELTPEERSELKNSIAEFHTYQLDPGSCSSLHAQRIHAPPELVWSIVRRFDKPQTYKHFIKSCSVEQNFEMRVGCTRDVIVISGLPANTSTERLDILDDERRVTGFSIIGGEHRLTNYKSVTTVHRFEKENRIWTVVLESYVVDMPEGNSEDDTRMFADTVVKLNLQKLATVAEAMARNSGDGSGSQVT
# T1 sequence (Q9CAJ0 1-511 partner): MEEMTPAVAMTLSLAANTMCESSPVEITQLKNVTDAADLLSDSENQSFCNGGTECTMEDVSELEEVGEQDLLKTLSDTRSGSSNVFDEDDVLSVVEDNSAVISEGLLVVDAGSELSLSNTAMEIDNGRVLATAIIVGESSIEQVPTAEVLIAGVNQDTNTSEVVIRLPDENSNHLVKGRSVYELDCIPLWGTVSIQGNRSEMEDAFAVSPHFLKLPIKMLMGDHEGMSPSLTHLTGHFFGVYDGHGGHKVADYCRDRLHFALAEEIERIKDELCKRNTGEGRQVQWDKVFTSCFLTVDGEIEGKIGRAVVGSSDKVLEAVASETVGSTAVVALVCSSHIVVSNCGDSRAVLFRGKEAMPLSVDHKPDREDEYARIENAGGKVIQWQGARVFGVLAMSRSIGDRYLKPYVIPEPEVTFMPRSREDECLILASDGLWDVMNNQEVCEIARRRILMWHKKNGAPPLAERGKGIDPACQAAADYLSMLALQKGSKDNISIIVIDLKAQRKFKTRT
# Experimental: To explore the functional implications of the PYR1-PP2C interaction, we examined if an ABA response could be reconstituted in vitro. Recombinant GST-HAB1, GST-ABI1 and GST-ABI2 were expressed in E. coli and tested for ligand-dependent interactions with 6×His-PYR1 in pull-down assays. Purified 6×His-PYR1 and GST-HAB1 (20 and 100 μg respectively, 8 μM PYR1 final concentration), were combined in 100 μl TBS containing 10 μM (+)-ABA or 1% DMSO for negative control. The reaction was incubated for 90 minutes at RT and 5 μl of PrepEase (USB) His-tagged protein purification resin was added. The resin and reaction mixture was incubated 30 min at RT with gentle shaking at 5 min intervals. The resin was washed five times with TBS containing 10 μM (+)-ABA. After the final wash, the bound protein was eluted in 20 μl SDS-PAGE buffer, boiled for 5 minutes and centrifuged. 5 μl of eluate was analyzed on SDS-PAGE. For pull-downs with ABI1 and ABI2, crude lysates were used in a similar method, except purified PP2C was replaced with cleared E. coli lysates. The amount of lysate added was determined by SDS-page analysis to yield ˜100 μg PP2C, such that the same stoichiometry was used as in assays using purified proteins.
# [2] = tested on: Arabidopsis seeds; assay: Seed germination inhibition; assay type: in vivo; conditions: for amount required to ensure 100% inhibition of germination: scored 3 days post-imbibition, dose curve analyses
# Experimental: FIG. 1. Pyrabactin is a seed selective ABA agonist. (A) Structures of molecules described in this study. (B) Pyrabactin activity is suppressed by abi1-1. Seeds of the genotype shown at top were imbibed on media containing 25 μM pyrabactin and scored for germination 4 days after stratification. Shown at bottom are IC50 values for pyrabactin's germination effect on the genotypes characterized. (C) Microarray comparison of pyrabactin and ABA treatments in seeds. The Y-axis plots the log2 transformed value for a probe's response to 25 μM pyrabactin (relative to untreated control) and the X-axis a probe's response to 1 μM ABA. […] (D) Microarray comparison of cycloheximide and ABA responses in seeds. […] (E) Microarray comparison of pyrabactin and ABA responses in seedlings. Seven-day old seedlings were transferred to 10 μM ABA or 50 μM pyrabactin containing plates for 24 hours and then mRNA samples profiled. Inset in each scatter plot is the Pearson correlation coefficient for each comparison. Detailed microarray methods are described in the Examples section.
# FIG. 2. PYR1 encodes an ABA responsive START-domain protein. (A) Pyr1 alleles. Shown are the allele names, strain names (in parentheses) and amino acid changes caused by the Pyr1 mutant alleles identified by screening for pyrabactin resistant mutations. (B) Pictographic representation of Pyr1 and Pyl1-Pyl4 expression values housed in public microarray databases. The heatmap shown at top right is for the first upper three panels and the bottom heatmap for the guard cell data. Plots were made using the eFP browser (D. Winter et al., PLoS ONE 2, e718 (2007)). (C) 35S::GFP-PYR1 complements pyr1-1. Seeds of the genotypes shown were stratified 4 days on 25 μM pyrabactin and then germinated at RT, 90% RH for 3 days in darkness. […] (D) Pyr/Pyls are required for normal ABA-induced gene expression in seedlings. Shown are qRT-PCR results for the ABA-responsive gene RD29. L, Ler; C, Col; and Q, quadruple mutant. (E) Pyr/Pyl genes are required for normal ABA-induced stress-induced gene expression in seedlings. Shown are qRT-PCR results for two ABA-responsive taqman probes, as described in the Examples section. L=Ler, C=Col, Q=quadruple mutant.
# As part of an earlier effort, we identified a germination inhibitor named pyrabactin (Y. Zhao et al., Nat Chem Biol 3, 716 (2007)). […] To test this hypothesis, we examined the pyrabactin sensitivity of mutant lines with altered ABA signaling, biosynthesis or gibberellic acid (GA) perception.
# We next performed microarray experiments to evaluate the similarity of the transcriptional responses induced by ABA and pyrabactin treatments. For microarray, tissue was prepared and RNA extracted from Columbia wild type seeds sown on 0.5×MS media (˜2500 seeds per 150 mm plate) containing either 1 μM ABA, 25 μM pyrabactin, 25 μM 2,4-Dinitrophenol (DNP), 1 μM cycloheximide, 2 μM methotrexate or 1% DMSO control plates (all chemicals are dissolved in DMSO). The concentrations utilized for these experiments were normalized for germination inhibition activity by dose curve analyses, i.e. the amount of both compounds required to ensure 100% inhibition of germination when scored 3 days post-imbibition. ABA (±stereoisomers), DNP, cycloheximide and methotrexate were purchased from Sigma Aldrich. Seeds were stratified for 4 days and then incubated in the dark at room temperature for 24 hours. […]
Compound,ligand-dependent PP2C interaction with 6×His-PYR1 in pull-down [1],amount required to ensure 100% inhibition of germination [2] [µM],effect on germination ([2]; in vivo),"germination of Columbia wild type seeds ([2]; stratified 4 days on 25 μM pyrabactin, germinated at RT, 90% RH for 3 days in darkness)"
"CC1=CC(=O)CC(C)(C)C1(O)/C=C/C(C)=C\C(=O)O (single isomer, unassigned; (+)) [(+)-ABA]",promote PP2C interactions with PYR1,,,
"CC1=CC(=O)CC(C)(C)[C@@]1(O)/C=C/C(C)=C\C(=O)O [ABA, Abscisic acid]",,1,,
O=S(=O)(NCc1ccccn1)c1ccc(Br)c2ccccc12 [pyrabactin],promote PP2C interactions with PYR1,25,inhibits germination,unable to germinate
